Experimental data taken from US3966773A, “2-Substituted-3,4-epoxycyclopentan-1-ones, and 2-substituted-3,4-epoxycyclopentan-1-ols” (American Cyanamid Company, priority 1975, dated 1976).

These molecules were tested on bronchospasms elicited by histamine (assay: Bronchodilator activity (Konzett assay), histamine as spasmogenic agent). Settings: Cavia porcellus; three logarithmic cumulative intravenous doses.
Assay type: in vivo, guinea pig
Experimental: (§1) Bronchodilator activity was determined in guinea pigs against bronchospasms elicited by intravenous injections of 5-hydroxytryptamine, histamine or acetylcholine by the Konzett procedure. [See J. Lulling, P. Lievens, F. El Sayed and J. Prignot, Arzeimittel-Forschung, 18 995 (1968).]
(§2) In the Table which follows bronchodilater activity for representative compounds of this invention against one or more of the three spasmogenic agents is expressed as an ED50 determined from the results obtained with three logarithemic cumulative intravenous doses.
`CCCCCC(O)/C=C/[C@H]1CCC(=O)[C@@H]1CCCCCC(CC)C(=O)O` (stereo partly drawn) was tested, and the ED50 was 0.000145 mg/kg.

What follows are molecules tested on diastolic blood pressure (assay: Hypotensive activity in anesthetized rats). Settings: Rattus norvegicus; intravenous; dose producing a decrease of about 10 mm. in diastolic blood pressure.
Assay type: in vivo, rat (male Wistar strain)
Experimental: This procedure is a modification of the technique described by Pike et al., Prostaglandins, Nobel Symposium 2, Stockholm, June, 1966; p. 165.
Male Wistar strain rats (Royal Hart Farms) averaging approximately 250 grams in weight were fastened to rat boards in a supine position by means of canvas vests and limb ties. The femoral area was infiltrated subcutaneously with lidocaine and the iliac artery and vein were exposed and cannulated. Arterial blood pressure (systolic/diastolic) was recorded using a Statham P23 Db pressure, the animals were anethetized before use with pentobarbital, 30 mg./kg. of body weight intravenously, and also were given hexamethoxium bitartrate, 2 mg./kg. of body weight intravenously. The test compounds were prepared by ultrasonic dispersion in a saline-Tween 80 vehicle. A constant intravenous dose volume of 0.5 ml. was administered and test doses ranged from 0.1 to 10.0 mg./kg. of body weight. Increasing or decreasing doses were selected depending on the dose response obtained. In Table 2B below are set forth the minimal doses required to produce a decrease of about 10 mm. in diastolic blood pressure for typical compounds of the present invention.
`CCCCC[C@@H](O)/C=C/[C@H]1CCC(=O)[C@@H]1CCCCOCC(=O)OCC` (relative stereo) [Ethyl 3-oxa-9-oxo-15-epi-hydroxy-13-trans-prostenoate] was tested, and the minimal effective dose was 0.2 mg/kg. `CCCCC[C@@H](O)/C=C/[C@H]1CCC(=O)[C@@H]1CCCCSCC(=O)O` (relative stereo) [3-thia-9-oxo-15-epi-hydroxy-13-trans-prostenoic acid] showed a minimal effective dose of 2 mg/kg. In the case of `CC/C=C\CC(O)/C=C/[C@H]1CCC(=O)[C@@H]1C/C=C\CCCC(=O)O` (relative stereo) [9-oxo-15-hydroxy-5-cis,13-trans,17-cis-prostatrienoic acid], the minimal effective dose is reported as less than 2 mg/kg. `CCCCCC(O)/C=C/[C@H]1CCC(=O)[C@@H]1CCCCCC(C(=O)O)c1ccccc1` (relative stereo) [9-oxo-15-hydroxy-2-phenyl-13-trans-prostenoic acid] gave a minimal effective dose of 8 mg/kg. Molecule `CCCCCC(O)/C=C/[C@H]1CCCC(=O)[C@@H]1CCCCCCC(=O)OCC` (relative stereo) [Ethyl 9-oxo-15-hydroxy-10a-homo-13-trans-prostenoate] has a minimal effective dose of 2 mg/kg. `CCCCC[C@@H](O)/C=C/[C@H]1CCC(=O)[C@@H]1CCCCOCC(=O)O` (relative stereo) [3-oxa-9-oxo-15-epi-hydroxy-13-trans-prostenoic acid] showed a minimal effective dose of 1 to 2 mg/kg. `CCCCC(C)(C)C(O)/C=C/[C@H]1CCC(=O)[C@@H]1CCCCSCC(=O)O` (relative stereo) [9-oxo-15-hydroxy-16,16-dimethyl-3-thia-13-trans-prostenoic acid] showed a minimal effective dose of less than 2 mg/kg. `CCCCCC(O)/C=C/[C@H]1CCC(=O)[C@@H]1CCCCSCC(=O)O` (relative stereo) [9-oxo-15-hydroxy-3-thia-13-trans-prostenoic acid] showed a minimal effective dose of 2 mg/kg. `CCCCCC(O)/C=C/[C@H]1CCC(=O)[C@@H]1CCCCCC(C)C(=O)O` (relative stereo) [9-oxo-15-hydroxy-2-methyl-13-trans-prostenoic acid] was tested, and the minimal effective dose was 2 mg/kg. For `CCCCCC(O)CC[C@H]1CCC(=O)[C@@H]1CCCCCC(CC)C(=O)O` (stereo partly drawn) [2-ethyl-9-oxo-15-hydroxy-prostanoic acid, 9-oxo-15-hydroxy-2-ethyl-prostanoic acid], the minimal effective dose was 0.2 mg/kg. `CCCCC(C)(C)C(O)/C=C/[C@H]1CCC(=O)[C@@H]1CCCCOCC(=O)O` (relative stereo) [9-oxo-15-hydroxy-16,16-dimethyl-3-oxa-13-trans-prostenoic acid] was tested, and the minimal effective dose was less than 2 mg/kg. For `CCC/C=C/C(O)CC[C@H]1CCC(=O)[C@@H]1CCCCCCC(=O)O` (relative stereo) [9-oxo-15-hydroxy-16-trans-prostenoic acid], the minimal effective dose was less than 2 mg/kg. Work on `CCCCC[C@@H](O)/C=C/[C@H]1CCCC(=O)[C@@H]1CCCCCCC(=O)O` (relative stereo) [9-oxo-10a-homo-15-epi-hydroxy-13-trans-prostenoic acid] yielded a minimal effective dose of 2 mg/kg. With `CCCCC[C@@H](O)/C=C/[C@H]1CCC(=O)[C@@H]1CCCCCC(CC)C(=O)O` (relative stereo) [2-ethyl-9-oxo-15-epi-hydroxy-13-trans-prostenoic acid] the minimal effective dose was 2 to 4 mg/kg. Molecule `CC/C=C\CC(C)(O)/C=C/[C@H]1CCC(=O)[C@@H]1C/C=C\CCCC(=O)O` (stereo partly drawn) [9-oxo-15-hydroxy-15-methyl-5-cis,13-trans,17-cis-prostatrienoic acid] has a minimal effective dose of less than 2 mg/kg. In the case of `CCCCC[C@@H](O)/C=C/[C@H]1CCC(=O)[C@@H]1CCCCCC(C)C(=O)O` (relative stereo) [2-methyl-9-oxo-15-epi-hydroxy-13-trans-prostenoic acid], the minimal effective dose is reported as 2 mg/kg. `CCCCC(C)(C)C(O)/C=C/[C@H]1CCC(=O)[C@@H]1CCCCCCC(=O)O` (relative stereo) [9-oxo-15-hydroxy-16,16-dimethyl-13-trans-prostenoic acid] was tested, and the minimal effective dose was less than 2 mg/kg. `CCCCCC(O)/C=C\[C@H]1CCC(=O)[C@@H]1CCCCCCC(=O)O` (relative stereo) [9-oxo-15-hydroxy-13-cis-prostenoic acid, 15-hydroxy-9-oxo-13-cis-prostenoic acid] showed a minimal effective dose of 2 to 4 mg/kg. `CCCCCC(O)/C=C/[C@H]1CCC(=O)[C@@H]1CCCCOCC(=O)O` (relative stereo) [9-oxo-15-hydroxy-3-oxa-13-trans-prostenoic acid] showed a minimal effective dose of less than 2 mg/kg. `CCCC#CC(O)CC[C@H]1CCC(=O)[C@@H]1CCCCCCC(=O)O` (stereo partly drawn) [9-oxo-15-hydroxy-16-prostynoic acid] gave a minimal effective dose of 2 mg/kg. For `CCCCC[C@@H](O)/C=C/[C@H]1CCC(=O)[C@@H]1CCCCCC(C(=O)O)c1ccccc1` (relative stereo) [2-phenyl-9-oxo-15-epi-hydroxy-13-trans-prostenoic acid], the minimal effective dose was 2 to 8 mg/kg. Work on `CCCCCC(O)/C=C/[C@H]1CCC(=O)[C@@H]1CCCCC(C)(C)CC(=O)O` (relative stereo) [9-oxo-15-hydroxy-3,3-dimethyl-13-trans-prostenoic acid] yielded a minimal effective dose of 8 mg/kg. In the case of `CCCCCC(O)/C=C/[C@H]1CCC(=O)[C@@H]1CCCCOCC(=O)OCC` (relative stereo) [Ethyl 9-oxo-15-hydroxy-3-oxa-13-trans-prostenoate], the minimal effective dose is reported as 0.2 mg/kg. Work on `CCCCCC(O)/C=C/[C@H]1CCC(=O)[C@@H]1CCCCCC(CC)C(=O)O` (stereo partly drawn) yielded a minimal effective dose of less than 2 mg/kg. `CCCCCC(O)/C=C/[C@H]1CCCC(=O)[C@@H]1CCCCCCC(=O)O` (relative stereo) [9-oxo-15-hydroxy-10a-homo-13-trans-prostenoic acid] gave a minimal effective dose of 2 mg/kg. Molecule `CCCCCC(O)/C=C/[C@H]1CCC(=O)[C@@H]1CCCCCC(F)C(=O)O` (relative stereo) [9-oxo-15-hydroxy-2-fluoro-13-trans-prostenoic acid] has a minimal effective dose of 8 mg/kg. `CCCCCC(O)/C=C/[C@H]1CCC(=O)[C@]1(C)CCCCCCC(=O)O` (relative stereo) [9-oxo-8β-methyl-15-hydroxy-13-trans-prostenoic acid] showed a minimal effective dose of 2 mg/kg. In the case of `CC/C=C\CC(O)/C=C/[C@H]1CCC(=O)[C@@H]1CCCCCCC(=O)O` (relative stereo) [9-oxo-15-hydroxy-13-trans,17-cis-prostadienoic acid], the minimal effective dose is reported as less than 2 mg/kg. `CCCC(C)(C)CC(O)/C=C/[C@H]1CCC(=O)[C@@H]1CCCCCCC(=O)O` (relative stereo) [9-oxo-15-hydroxy-17,17-dimethyl-13-trans-prostenoic acid] showed a minimal effective dose of 2 mg/kg. For `CCCCC(CC)C(O)/C=C/[C@H]1CCC(=O)[C@@H]1CCCCCCC(=O)O` (relative stereo) [9-oxo-15-hydroxy-16-ethyl-13-trans-prostenoic acid], the minimal effective dose was less than 8 mg/kg. With `CCCCCC(O)/C=C/[C@H]1CCC(=O)[C@@H]1CCCCCCCCC(=O)O` (relative stereo) [9-oxo-15-hydroxy-7a,7b-bishomo-13-trans-prostenoic acid] the minimal effective dose was less than 8 mg/kg.

What follows are molecules tested on bronchospasms elicited by acetylcholine (assay: Bronchodilator activity (Konzett assay), acetylcholine as spasmogenic agent). Settings: Cavia porcellus, read-out: Bronchodilator Activity ED50, spasmogenic agent acetylcholine; three logarithmic cumulative intravenous doses; read-out: Bronchodilator Activity ED50, spasmogenic agent choline.
Assay type: in vivo, guinea pig
Experimental: as §1, §2
`CCCCCC(O)/C=C\[C@H]1CCC(=O)[C@@H]1CCCCCCC(=O)O` (relative stereo) [9-oxo-15-hydroxy-13-cis-prostenoic acid, 15-hydroxy-9-oxo-13-cis-prostenoic acid] gave an ED50 of 0.00032 mg/kg. For `CCCC#CC(O)CC[C@H]1CCC(=O)[C@@H]1CCCCCCC(=O)O` (stereo partly drawn) [9-oxo-15-hydroxy-16-prostynoic acid], the ED50 was 0.00032 mg/kg. `CCCCCC(O)/C=C/[C@H]1CCC(=O)[C@@H]1CCCCCC(CC)C(=O)O` (stereo partly drawn) was tested, and the ED50 was 0.000533 mg/kg.

The molecules below were run on bronchospasms elicited by 5-hydroxytryptamine (assay: Bronchodilator activity (Konzett assay), 5-hydroxytryptamine as spasmogenic agent). Settings: Cavia porcellus; three logarithmic cumulative intravenous doses.
Assay type: in vivo, guinea pig
Experimental: as §1, §2
`CCCCCC(O)/C=C/[C@H]1CCC(=O)[C@@H]1CCCCCC(CC)C(=O)O` (stereo partly drawn) was tested, and the ED50 was 0.000329 mg/kg.
